Test results as given in ChEMBL document CHEMBL4346696, “PIM kinase inhibitors: Structural and pharmacological perspectives” (Eur J Med Chem, 2019).

Columns and labels:
HT-29 = experiment: Cytotoxicity against human HT-29 cells after 24 hrs by MTT assay; type: functional, cell-based; settings: HT-29, 24 h
MCF7 = experiment: Cytotoxicity against human MCF7 cells after 24 hrs by MTT assay; type: functional, cell-based; settings: MCF7, 24 h
[1] = Cytotoxicity against human […] cells after 24 hrs by MTT assay; type: functional, cell-based
[2] = biological target: T1, Serine/threonine-protein kinase pim-1 (Homo sapiens, UniProt P11309); experiment: Inhibition of PIM1 (unknown origin)
T1 sequence (P11309 whole entry): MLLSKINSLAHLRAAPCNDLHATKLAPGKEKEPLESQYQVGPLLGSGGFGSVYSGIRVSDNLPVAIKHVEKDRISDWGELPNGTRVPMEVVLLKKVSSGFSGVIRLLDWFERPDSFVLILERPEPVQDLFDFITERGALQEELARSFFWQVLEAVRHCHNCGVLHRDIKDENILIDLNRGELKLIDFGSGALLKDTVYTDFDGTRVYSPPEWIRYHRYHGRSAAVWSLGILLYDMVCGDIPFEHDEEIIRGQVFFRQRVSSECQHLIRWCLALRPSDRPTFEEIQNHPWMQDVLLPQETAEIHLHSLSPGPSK

Homo sapiens [3] = species on record: Homo sapiens; experiment: Selectivity ratio of IC50 for PI3kgamma (unknown origin) to Ki for PIM1 (unknown origin)
Homo sapiens [4] = species on record: Homo sapiens; experiment: Selectivity ratio of IC50 for PI3kdelta (unknown origin) to Ki for PIM1 (unknown origin)
Homo sapiens [5] = species on record: Homo sapiens; experiment: Selectivity ratio of IC50 for PI3kalpha (unknown origin) to Ki for PIM1 (unknown origin)
[6] = biological target: T1, Serine/threonine-protein kinase pim-1; experiment: Inhibition of N-terminal GST-tagged recombinant human full length Pim-1 expressed in Escherichia coli cells

For `CSc1ncc(-c2cc(-c3ccc4c(c3)OCO4)[nH]c(=O)c2C#N)n1Cc1ccccc1`, the IC50 (HT-29) was > 130000 nM.

For `CSc1ncc(-c2cc(-c3ccc4c(c3)OCO4)[nH]c(=N)c2C#N)n1Cc1ccccc1`, the IC50 (HT-29) was > 130000 nM.

`Cc1nc2sc3c(c2c(C)c1Br)NC(c1ccc(O)c(O)c1)NC3=O` (centres undefined) gave an IC50 (MCF7) of 60 to 1760 nM and an IC50 [1] of 60 to 1760 nM.

With `CSc1ncc(-c2cc(-c3ccc(Br)cc3)[nH]c(=N)c2C#N)n1Cc1ccccc1` the IC50 [2] was < 150 nM and the IC50 (HT-29) was > 130000 nM.

With `CSc1ncc(-c2cc(-c3ccc(Br)cc3)[nH]c(=O)c2C#N)n1Cc1ccccc1` the IC50 [2] was < 150 nM and the IC50 (HT-29) was > 130000 nM.

Compound `CC(C)(O)[C@H]1CC[C@H](Nc2ccc3ncc(-c4cccc(C(F)(F)F)c4)n3n2)CC1` has a Ratio (Homo sapiens [3]) of 10, a Ratio (Homo sapiens [4]) of 10 and a Ratio (Homo sapiens [5]) of 10.

In the case of `COc1cc(C2NC(=O)c3sc4nc(C)c(Br)c(C)c4c3N2)ccc1O` (centres undefined), the IC50 (MCF7) is reported as 60 to 1760 nM and the IC50 [1] is reported as 60 to 1760 nM.

`O=C1NC(=O)/C(=C/c2ccnc(N3CCC(CNCc4ccc5ccccc5n4)CC3)n2)S1` gave a Ki [6] of 7.7 nM.
